pKi: −log10 of the molar value.
biological target: human PDE2A1 (Homo sapiens (Human), UniProt O00408); assay: IMAP fluorescence polarization assay, human PDE2A1 (PDE selectivity panel); format: biochemical; conditions: not given
Experimental: The activity of the compounds in accordance with the present invention as PDE2 inhibitors may be readily determined using a fluorescence polarization (FP) methodology (Huang, W., et al., J. Biomol Screen, 2002, 7: 215).
Dose-inhibition profiles for each compound were characterized by fitting the mP data to a four-parameter equation given below.
Selectivity for PDE2, as compared to other PDE families, was assessed using the IMAP® technology. Human PDE10A2 enzyme was prepared from cytosolic fractions of transiently transfected HEK cells. All other PDE's were GST Tag human enzyme expressed in insect cells and were obtained from BPS Bioscience (San Diego, Calif.): PDE1A (Cat#60010), human PDE2A1 (Cat#60020), PDE3A (Cat#60030), PDE4A1A (Cat#60040), PDE5A1 (Cat#60050), PDE6C (Cat#60060), PDE7A (Cat#60070), PDE8A1 (Cat#60080), PDE9A2 (Cat#60090), PDE11A4 (Cat#60110).
Assays for PDE 1 through 11 were performed in parallel at room temperature in 384-well microtiter plates with an incubation volume of 20.2 μL. Solutions of test compounds were prepared in DMSO and serially diluted with DMSO to yield 30 μL of each of ten solutions differing by 3-fold in concentration, at 32 serial dilutions per plate. […] A Labcyte POD 810 (Labcyte, Sunnyvale, Calif.) was used to dispense 200 nL from each well of the titration plate to make eleven copies of the assay plate for each titration, one copy for each PDE enzyme. A solution of each enzyme (dilution from aliquots, sufficient to produce 20% substrate conversion) and a separate solution of FAM-labeled cAMP or FAM-labeled cGMP from Molecular Devices (Sunnyvale, Calif., product # R7506 or cGMP#R7508), at a final concentration of 50 nM were made in the assay buffer (10 mM Tris HCl, pH 7.2, 10 mM MgCl2, 0.05% NaN3 0.01% Tween-20, and 1 mM DTT). Note that the substrate for PDE2 is 50 nM FAM cAMP containing 1000 nM of cGMP. The enzyme and the substrate were then added to the assay plates in two consecutive additions of 10 μL and then shaken to mix. The reaction was allowed to proceed at room temperature for 60 minutes. A binding solution was then made from the kit components, comprised of 80% Solution A, 20% Solution B and binding reagent at a volume of 1/600 the total binding solution. The enzymatic reaction was stopped by addition of 60 μL of the binding solution to each well of the assay plate. The plates were sealed and shaken for 10 seconds. The plates were incubated at room temperature for one hour, then the parallel and perpendicular fluorescence was measured using a Tecan Genios Pro plate reader (Tecan, Switzerland). The apparent inhibition constants for the compounds against all 11 PDE's was determined from the parallel and perpendicular fluorescent readings as described for PDE10 FP assay using the following apparent KM values for each enzyme and substrate combination: PDE1A (FAM cGMP) 70 nM, human PDE2A1 (FAM cAMP) 10,000 nM, PDE3A (FAM cAMP) 50 nM, PDE4A1A (FAM cAMP) 1500 nM, PDE5A1 (FAM cGMP) 400 nM, PDE6C (FAM cGMP) 700 nM, PDE7A (FAM cAMP) 150 nM, PDE8A1 (FAM cAMP) 50 nM, PDE9A2 (FAM cGMP) 60 nM, PDE10A2 (FAM cAMP) 150 nM, PDE11A4 (FAM cAMP) 1000 nM. The intrinsic PDE2 inhibitory activity of a compound which may be used in accordance with the present invention may be determined by these assays.

human PDE2A1, sequence (O00408 other isoform, or with tags, fused parts or gaps): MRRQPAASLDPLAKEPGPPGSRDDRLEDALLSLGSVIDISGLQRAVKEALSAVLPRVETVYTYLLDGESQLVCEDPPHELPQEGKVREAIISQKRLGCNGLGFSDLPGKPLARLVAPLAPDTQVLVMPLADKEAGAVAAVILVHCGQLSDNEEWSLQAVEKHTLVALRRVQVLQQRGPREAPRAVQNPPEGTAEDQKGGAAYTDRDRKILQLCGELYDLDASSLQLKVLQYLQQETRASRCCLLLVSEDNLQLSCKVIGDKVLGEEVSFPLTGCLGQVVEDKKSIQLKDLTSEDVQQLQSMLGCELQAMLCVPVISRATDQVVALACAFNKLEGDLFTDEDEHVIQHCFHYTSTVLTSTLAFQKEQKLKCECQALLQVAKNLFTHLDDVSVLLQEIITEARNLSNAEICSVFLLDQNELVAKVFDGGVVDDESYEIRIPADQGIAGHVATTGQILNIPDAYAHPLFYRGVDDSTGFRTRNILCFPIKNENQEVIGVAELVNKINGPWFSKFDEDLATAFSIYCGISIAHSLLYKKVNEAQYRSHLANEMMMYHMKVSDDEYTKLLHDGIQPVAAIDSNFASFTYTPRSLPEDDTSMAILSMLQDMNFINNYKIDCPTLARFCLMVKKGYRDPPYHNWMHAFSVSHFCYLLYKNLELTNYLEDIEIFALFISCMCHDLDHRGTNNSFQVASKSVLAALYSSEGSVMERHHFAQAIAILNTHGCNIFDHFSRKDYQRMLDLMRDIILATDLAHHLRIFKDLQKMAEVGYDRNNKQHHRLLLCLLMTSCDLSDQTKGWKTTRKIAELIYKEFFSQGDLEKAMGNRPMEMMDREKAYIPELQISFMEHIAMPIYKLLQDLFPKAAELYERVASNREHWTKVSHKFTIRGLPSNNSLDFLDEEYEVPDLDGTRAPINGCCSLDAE

SMILES | inhibition at 3 µM [%]
Cc1nc(-c2nnc(C(C)c3ccc(C(F)(F)F)cc3F)n2C)cc(=O)[nH]1 (single isomer, unassigned) [Example 63, (R)- or (S)-6-(5-(1-(2-fluoro-4-(trifluoromethyl)-phenyl)ethyl)-4-methyl-4H-1,2,4-triazol-3-yl)-2-methylpyrimidin-4(3H)-one] | 16
Cc1nc(-c2nnn([C@H](C)c3ccc(C(F)(F)F)cc3Cl)c2C)cc(=O)[nH]1 (mixture of isomers) [Example 44, (R)- and (S)-6-(1-(1-(2-Chloro-4-(trifluoromethyl)phenyl)-ethyl)-5-methyl-1H-1,2,3-triazol-4-yl)-2-methylpyrimidin-4(3H)-one] | 44

same assay, conditions: FAM cAMP 50 nM with 1000 nM cGMP

SMILES | pKi
Cc1nc(-c2cn(C(c3ccc(C(F)(F)F)cc3F)C3CC3)nn2)cc(=O)[nH]1 (single isomer, unassigned) [Example 42] | 8.01
Cc1nc(-n2cnc([C@H](C)c3ccc(C(F)(F)F)cc3F)n2)cc(=O)[nH]1 (single isomer, unassigned) [Example 84] | 6.65
Cc1nc(-c2nnn3c2CCC[C@]3(C)c2ccc(OC(F)(F)F)cc2)cc(=O)[nH]1 (single isomer, unassigned) [Example 76] | 6.74
Cc1nc(-c2nnc3n2CCCC3(C)c2ccc(C(F)(F)F)cc2)cc(=O)[nH]1 (single isomer, unassigned) [Example 73, (S)- or (R)-2-methyl-6-(8-methyl-8-(4-(trifluoromethyl)phenyl)-5,6,7,8-tetrahydro-[1,2,4]triazolo[4,3-a]pyridin-3-yl)pyrimidin-4(3H)-one] | 7.57
Cc1nc(-c2nnn3c2CCC[C@]3(C)c2ccc(OC(F)(F)F)cc2)cc(=O)[nH]1 (single isomer, unassigned) [Example 77] | 5.55
Cc1nc(-c2cn(C(C)c3ccc(C4CC4)cc3Cl)nn2)cc(=O)[nH]1 (single isomer, unassigned) [Example 25, (R)- or (S)-6-(1-(1-(2-chloro-4-cyclopropylphenyl)ethyl)-1H-1,2,3-triazol-4-yl)-2-methylpyrimidin-4(3H)-one] | 7.23
Cc1nc(-c2nnc(C(C)c3ccc(C(F)(F)F)cc3Cl)n2C)cc(=O)[nH]1 (single isomer, unassigned) [Example 68, (S)- or (R)-6-(5-(1-(2-chloro-4-(trifluoromethyl)-phenyl)ethyl)-4-methyl-4H-1,2,4-triazol-3-yl)-2-methylpyrimidin-4(3H)-one] | 8.11
Cc1nc(-c2nnn3c2CCCC3c2ccc(C(F)(F)F)cc2F)cc(=O)[nH]1 (single isomer, unassigned) [Example 50, (S)- or (R)-6-(7-(2-fluoro-4-(trifluoromethyl)phenyl)-4,5,6,7-tetrahydro-[1,2,3]triazolo[1,5-a]pyridin-3-yl)-2-methylpyrimidin-4(3H)-one] | 7.68
Cc1nc(-c2nnn3c2CCCC3(C)c2ccc(C(F)(F)F)cc2F)cc(=O)[nH]1 (single isomer, unassigned) [Example 58, (R)- or (S)-6-(7-(2-fluoro-4-(trifluoromethyl)phenyl)-7-methyl-4,5,6,7-tetrahydro-[1,2,3]triazolo[1,5-a]pyridin-3-yl)-2-methylpyrimidin-4(3H)-one] | 8.89
CCc1ccc([C@]2(C)CCCc3c(-c4cc(=O)[nH]c(C)n4)nnn32)c(F)c1 (single isomer, unassigned) [Example 96] | 6.37
Cc1nc(-c2nnn3c2CCCCC3(C)c2ccc(C(F)(F)F)cc2F)cc(=O)[nH]1 (single isomer, unassigned) [Example 94, (S)- or (R)-6-(8-(2-Fluoro-4-(triflouromethyl)phenyl)-8-methyl-5,6,7,8-tetrahydro-4H-[1,2,3]triazolo[1,5-a]azepin-3-yl)-2-methylpyrimidin-4(3H)-one] | 7.25
CCc1ccc(C(C)(C)n2cc(-c3cc(=O)[nH]c(C)n3)nn2)c(C)c1 [Example 33, 6-(1-(2-(4-ethyl-2-methylphenyl)propan-2-yl)-1H-1,2,3-triazol-4-yl)-2-methylpyrimidin-4(3H)-one] | 7.00
Cc1nc(-c2nnn3c2CCCCC3(C)c2ccc(C(F)(F)F)cc2F)cc(=O)[nH]1 (single isomer, unassigned) [Example 93, (S)- or (R)-6-(8-(2-Fluoro-4-(triflouromethyl)phenyl)-8-methyl-5,6,7,8-tetrahydro-4H-[1,2,3]triazolo[1,5-a]azepin-3-yl)-2-methylpyrimidin-4(3H)-one] | 7.17
COc1cccc(Cc2nc(-c3nnn4c3CCCC4(C)c3ccc(C(F)(F)F)cc3F)cc(=O)[nH]2)c1 (single isomer, unassigned) [Example 92] | 6.14
Cc1nc(-c2cn(C(C)(C)c3ccc(C(F)(F)F)cc3Cl)nn2)cc(=O)[nH]1 [Example 30, 6-(1-(2-(2-chloro-4-(trifluoromethyl)phenyl)propan-2-yl)-1H-1,2,3-triazol-4-yl)-2-methylpyrimidin-4(3H)-one] | 8.77
Cc1nc(-c2cnn([C@H](C)c3ccc(C(F)(F)F)cc3Cl)n2)cc(=O)[nH]1 (single isomer, unassigned) [Example 2] | ~5.89
Cc1nc(-c2cnn([C@H](C)c3ccc(C(F)(F)F)cc3Cl)n2)cc(=O)[nH]1 (single isomer, unassigned) [Example 1] | 7.44
Cc1nc(-c2nnn3c2CCCCC3c2ccc(C(F)(F)F)cc2)cc(=O)[nH]1 (single isomer, unassigned) [Example 51, (R)- or (S)-2-methyl-6-(8-(4-(trifluoromethyl)phenyl)-5,6,7,8-tetrahydro-4H-[1,2,3]triazolo[1,5-a]azepin-3-yl)pyrimidin-4(3H)-one] | 7.10
Cc1nc(-c2nnn3c2CCC[C@]3(C)c2ccc(C(F)(F)F)cc2C)cc(=O)[nH]1 (single isomer, unassigned) [Example 78] | 6.09
Cc1nc(-c2cnn(C(C)c3ccc(C(F)(F)F)cc3F)n2)cc(=O)[nH]1 (single isomer, unassigned) [Example 3, (R)- or (S)-6-(2-(1-(2-fluoro-4-(trifluoromethyl)phenyl)ethyl)-2H-1,2,3-triazol-4-yl)-2-metylpyrimidin-4(3H)-one] | 6.95
Cc1nc(-c2nnn3c2CCC[C@]3(C)c2ccc(C(F)(F)F)cc2Cl)cc(=O)[nH]1 (single isomer, unassigned) [Example 88] | < 5.53
Cc1nc(-c2cn([C@H](C)c3ccc(C(F)(F)F)cc3C)nn2)cc(=O)[nH]1 (single isomer, unassigned) [Example 10] | 6.88
Cc1nc(-c2cn(C(c3ccc(C(F)(F)F)cc3F)C(C)C)nn2)cc(=O)[nH]1 (single isomer, unassigned) [Example 40, (S)- or (R)-6-(1-(1-(2-fluoro-4-(trifluoromethyl)phenyl)-2-methylpropyl)-1H-1,2,3-triazol-4-yl)-2-methylpyrimidin-4(3H)-one] | 7.65
Cc1nc(-c2nnc(C(C)(C)c3ccc(C(F)(F)F)cc3F)n2C)cc(=O)[nH]1 [Example 69, 6-(5-(2-(2-Fluoro-4-(trifluoromethyl)phenyl)propan-2-yl)-4-methyl-4H-1,2,4-triazol-3-yl)-2-methylpyrimidin-4(3H)-one] | 5.95
Cc1nc(-c2cn(C(c3ccc(C(F)(F)F)cc3F)C(C)C)nn2)cc(=O)[nH]1 (single isomer, unassigned) [Example 39, (R)- or (S)-6-(1-(1-(2-fluoro-4-(trifluoromethyl)phenyl)-2-methylpropyl)-1H-1,2,3-triazol-4-yl)-2-methylpyrimidin-4(3H)-one] | 8.14
